In patent publication US8481459B2, “Chemical inhibitors of ethylene biosynthesis” (Academia Sinica, priority 2010, dated 2013):
“Also recorded” adds a separate entry of the source.

What was measured:
[1] = system: etiolated eto1-4 seedlings; assay: Triple response phenotype / hypocotyl length of etiolated eto1-4 seedlings; assay type: in vivo, Arabidopsis thaliana; conditions: for ranking in both hypocotyl length and ethylene level assays / suppression of the eto1-4 (triple response) phenotype: 10 μM; for ranking in both hypocotyl length and ethylene level assays: etiolated eto1-4, FIG. 3; for suppression of the eto1-4 (triple response) phenotype: germinated in the dark for 3 days; for effectiveness in phenotypical assay: etiolated eto1-4 seedlings; for concentration at which hypocotyl elongation becomes visible / concentration reaching maximal / nearly saturated effect on hypocotyl: eto1-4, 3 days in the dark, dose series
Method: All mutants and transgenic plants were derived from the wild-type Arabidopsis thaliana Columbia ecotype (Col-0) and cultivated under a long-day condition (16-h light/8-h dark at 22° C.) under exemplary e light (100-150 μE m^−2 s^−1). A reporter construct, 5×EBS::LUC (a generous gift from Drs. Hai Li and Anna N. Stepanova, Salk Institute, USA), containing 5 copies of EIN3 binding sequence (EBS) fused with luciferase gene (LUC) was transformed to eto1-4 and subsequently used for screening compounds of a chemical library. Ethylene mutants eto1-4, eto2-1, ctr1-1 and the EIN3 overexpression line (35S::EIN3) were described previously (Solano, et al. (1998) Genes Dev 12, 3703-3714). Seeds were sterilized with 30% bleach for 6 min and sown in half-strength Murashige and Skoog (0.5×MS) medium supplemented with 0.8% agar and stratified in the dark at 4° C. for 3-4 days before germination. For analysis of the triple response phenotype, stratified seeds were grown in the dark at 22° C. for 3 days before scoring the phenotype.
A DIVERSet library (ChemBridge Inc.) containing 10,000 small molecules (in DMSO) was used for chemical screening. Three rounds of chemical screenings were carried out in 0.5×MS agar medium containing individual chemicals in each well of 96- and 24-well micro-titer plates. The initial screening was performed by sowing 10 to 15 seeds in the wells of micro-titer plates containing small molecules at 50 μM to score the long-hypocotyl phenotype. For the second and third screenings, we used 25 μM of small molecules selected from the first round of screening to score and confirm the phenotype. The seedling phenotype was scored by use of a digital camera attached to a Zeiss stereomicroscope (SteREO V8), and quantitation of hypocotyl length was performed by use of NIH Image J software. AVG and silver thiosulfate (STS, by mixing silver nitrate and sodium thiosulfate at a 1:4 molar ratio immediately before use) were obtained from Sigma and used as controls to suppress ethylene biosynthesis and perception, respectively. Agar medium was supplemented with 1-aminocyclopropane-1-carboxylic acid (10 μM, Merck) to induce the triple response in etiolated seedlings.
Shortened hypocotyls in etiolated seedlings is one of the triple response phenotypes (Guzman, et al. (1990) Plant Cell 2, 513-523; Wang, et al. (2004) Nature 428, 945-950). Two chemical compounds negating ethylene response, AVG and STS, were included as a control for comparison.

[2] = system: etiolated eto2-1 seedlings; assay: Hypocotyl length of etiolated eto2-1 seedlings; assay type: in vivo, Arabidopsis thaliana; conditions: 30 μM
Method: Seeds of eto1-4 and eto2-1 were germinated in the dark in the absence (−) or presence (+) of different concentrations (10, 20 or 30 μM) of exemplary invention compounds and AVG. The length of hypocotyls and ethylene levels were quantified in 3-day-old etiolated seedlings. Data represent means±SE (n>40), and the experiments were repeated 3 times with similar results.
Therefore, ACC oxidase as the primary target of exemplary the exemplary invention compounds can be excluded. To determine whether the exemplary invention compounds are inhibitors of ACC synthase, the following assays were used. First, the hypocotyl length and ethylene level in the dominant eto2-1 mutant were analyzed, which bears a missense mutation at the 3′ terminus of ACS5 to generate a mutated yet functional protein, ACS5^eto2-1. […] Second, the effect of exemplary invention compounds on the enzymatic activity of recombinant Arabidopsis ACS5 protein by an in vitro ACS activity assay was analyzed (Chae, et al. (2003) Plant Cell 15, 545-559; Savaldi-Goldstein, et al. (2008) Proc Natl Acad Sci USA 105, 15190-15195).

[3] = molecular target: T1, recombinant Arabidopsis ACS5 (Arabidopsis thaliana, UniProt Q37001); assay: Enzyme kinetics assay of ACS5 (Lineweaver-Burk); assay type: biochemical; parameters: Vmax of recombinant ACS5 in the presence of inhibitor: unit not given here
T1 construct: The full-length cDNA of Arabidopsis ACS5 (At5g65800) was cloned to pETDuet (Novagen); 6His (N); made in house; host or cells: E. coli BL21-CodonPlus (Stratagene)
T1 sequence (Q37001 1-470): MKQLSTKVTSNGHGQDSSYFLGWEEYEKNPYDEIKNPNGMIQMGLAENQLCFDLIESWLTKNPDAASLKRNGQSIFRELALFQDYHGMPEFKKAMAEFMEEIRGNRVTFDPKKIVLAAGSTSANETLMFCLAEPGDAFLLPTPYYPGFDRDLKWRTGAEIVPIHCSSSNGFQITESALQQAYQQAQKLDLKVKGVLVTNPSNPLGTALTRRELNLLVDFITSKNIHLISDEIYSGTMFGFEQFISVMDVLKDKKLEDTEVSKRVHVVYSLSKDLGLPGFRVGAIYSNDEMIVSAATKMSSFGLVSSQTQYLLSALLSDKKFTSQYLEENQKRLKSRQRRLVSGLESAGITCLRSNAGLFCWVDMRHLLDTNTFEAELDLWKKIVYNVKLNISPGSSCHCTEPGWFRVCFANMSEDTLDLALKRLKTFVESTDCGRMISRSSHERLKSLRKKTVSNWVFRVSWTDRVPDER
Method: For the enzyme kinetics assay, different concentrations of SAM (20, 40, 60, 80, 100, 150, and 200 μM) were used to determine the Km and Vmax of purified recombinant ACS5. In addition, two concentrations, 0.05 and 0.1 μM, of AVG and compound 7303 were tested to determine the inhibition constant Ki. Reactions of enzyme kinetics assay were performed by first incubating chemical inhibitors or DMSO with different concentrations of SAM in 20-mL GC vials, then 1.6 μg purified ACS5 was added to initiate the enzyme reaction for 30 min at 25° C. Gas chromatography was used to quantitate the levels of ethylene chemically converted from ACC as described previously. Data analysis of enzyme kinetics assays and preparation of Lineweaver-Burk plots were done by SIGMAPLOT (Systat Software Inc.).
Because the exemplary invention compounds and AVG have distinct chemical structures (Table 1), they may use different mechanisms to inhibit ACC synthase. To clarify this issue, compound 7303 was selected as a representative of the exemplary invention compounds for enzyme kinetic assay to determine the inhibitory mechanism. […] Data from the enzyme kinetic assay support that the exemplary invention compounds are novel inhibitors of ACC synthase different from AVG and show uncompetitive inhibition in ACS activity.

| Structure (SMILES) | ranking in both hypocotyl length and ethylene level assays [1] | suppression of the eto1-4 (triple response) phenotype [1] | effectiveness in phenotypical assay [1] | concentration at which hypocotyl elongation becomes visible [1] [µM] | concentration reaching maximal / nearly saturated effect on hypocotyl [1] [µM] | suppression in hypocotyl length [2] [%] | Vmax of recombinant ACS5 in the presence of inhibitor ([3]; 0.1 μM inhibitor, without inhibitor 95.1±5.0) | inhibition pattern (mechanism) ([3]; Lineweaver-Burk plot, 0.05 and 0.1 μM) | Vmax ([3]; kinetic parameters of recombinant ACS5 fitted for the inhibitor series, substrate SAM) [µmol/h/mg] | Ki ([3]; recombinant ACS5, inhibitor at 0.05 and 0.1 μM, read-out: calculated inhibition constant (Ki)) [µM] |
| --- | --- | --- | --- | --- | --- | --- | --- | --- | --- | --- |
| Cc1ccc(C2CC(=O)c3cnc(NC4CCCC4)nc3C2)cc1 (stereo not drawn) [Compound 9370] | most effective | Suppression; also recorded: effectiveness comparable to that of silver nitrate | highly effective | 0.1 | 5 | – | – | – | – | – |
| CC1(C)CC(=O)c2cnc(NC3CCCC3)nc2C1 [Compound 9393] | most effective | Suppression; also recorded: effectiveness comparable to that of silver nitrate | highly effective | – | – | – | – | – | – | – |
| COc1ccc(C2CC(=O)c3cnc(Nc4ccccc4)nc3C2)cc1 (stereo not drawn) [Compound 7303] | most effective | Suppression; also recorded: effect comparable to that of compounds 9393 and 9370 | highly effective; also recorded: the most effective | 0.1 | 5 | 25 | 50.5±1.2 | uncompetitive inhibitor | 92.4 | 0.0984 ± 0.0067 |
